Assay results as given in patent US11780893B2, “Kv1.3 blockers” (Zealand Pharma A/S, priority 2019, dated 2023).
Where two headings read alike, the source gives them in different places. Bridge positions count the residues as written; N and C are the ends. Square brackets hold non-standard residues; d marks the D form. Peptide text beside a SMILES is read from it. Aad = N[C@@H](CCCC(=O)O)C(=O)O; Nle = CCCC[C@H](N)C(=O)O

Assays:
[1] = molecular target: T1, human Kv1.3 voltage-gated K+ channel (Homo sapiens, UniProt P22001); assay: cell-based; conditions: inhibition of thallium flux, CHO-DUKX cells with human Kv1.3; read-out: IC50
T1 construct: host or cells: CHO-DUKX

Kv1.3 = molecular target: T2, Kv1.3 (Homo sapiens, UniProt P22001); assay: cell-based; conditions: CHO cells, whole-cell patch clamp; read-out: Potency IC50 (nM) Kv1.3
T2 construct: expressed in transfected cells; host or cells: Chinese Hamster Ovary (CHO)

Rat whole blood = Rat whole blood (Rattus norvegicus, UniProt P15384)
[2] = inhibition of IL-17A release, thapsigargin, 24 Hr, at least 2 replicates

Sequence of Rat whole blood (P15384 whole entry): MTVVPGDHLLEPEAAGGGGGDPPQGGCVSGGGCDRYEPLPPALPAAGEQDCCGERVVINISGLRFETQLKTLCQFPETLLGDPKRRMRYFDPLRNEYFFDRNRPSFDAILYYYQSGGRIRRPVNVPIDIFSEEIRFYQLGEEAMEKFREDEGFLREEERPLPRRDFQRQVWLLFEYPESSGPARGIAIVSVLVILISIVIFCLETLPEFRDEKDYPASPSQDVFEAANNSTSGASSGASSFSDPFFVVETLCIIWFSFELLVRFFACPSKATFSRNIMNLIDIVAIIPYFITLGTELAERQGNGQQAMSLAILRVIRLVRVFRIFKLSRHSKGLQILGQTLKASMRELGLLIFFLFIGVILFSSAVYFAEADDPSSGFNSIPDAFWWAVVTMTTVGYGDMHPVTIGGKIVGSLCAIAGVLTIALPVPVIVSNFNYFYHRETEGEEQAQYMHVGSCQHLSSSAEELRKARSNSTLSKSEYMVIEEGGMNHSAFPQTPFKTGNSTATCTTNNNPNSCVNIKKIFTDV
T2 sequence (P22001 whole entry): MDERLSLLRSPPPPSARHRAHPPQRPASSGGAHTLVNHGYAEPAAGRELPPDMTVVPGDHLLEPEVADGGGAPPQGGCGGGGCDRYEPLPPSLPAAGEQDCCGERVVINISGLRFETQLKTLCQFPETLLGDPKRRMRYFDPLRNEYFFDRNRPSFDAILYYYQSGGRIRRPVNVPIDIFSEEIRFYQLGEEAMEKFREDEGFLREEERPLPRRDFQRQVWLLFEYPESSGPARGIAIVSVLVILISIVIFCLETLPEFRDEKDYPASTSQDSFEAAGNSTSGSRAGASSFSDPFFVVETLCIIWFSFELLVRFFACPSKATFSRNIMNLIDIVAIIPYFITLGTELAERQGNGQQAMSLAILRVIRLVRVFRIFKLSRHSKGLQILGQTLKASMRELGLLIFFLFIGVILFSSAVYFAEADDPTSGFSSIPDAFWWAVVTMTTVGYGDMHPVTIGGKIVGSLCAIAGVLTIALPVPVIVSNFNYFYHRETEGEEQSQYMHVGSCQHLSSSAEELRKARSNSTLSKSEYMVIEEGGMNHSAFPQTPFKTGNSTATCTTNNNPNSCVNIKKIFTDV
T1 sequence (P22001 whole entry): as above

CC[C@H](C)[C@@H]1NC(=O)[C@H](C)NC(=O)[C@H](CCCCN)NC(=O)[C@H](Cc2ccc(O)cc2)NC(=O)[C@@H]2CSSC[C@@H](C(=O)N[C@@H](Cc3ccc(O)cc3)C(=O)N3CCC[C@H]3C(=O)N[C@@H](CCCNC(=N)N)C(N)=O)NC(=O)[C@H](CCCCN)NC(=O)[C@@H]3CSSC[C@H](NC(=O)[C@H](CCC(=O)O)NC(=O)[C@H](C(C)C)NC(=O)[C@H](CO)NC(=O)[C@H](C)NC(=O)[C@H](CO)NC(=O)[C@@H](NC(=O)[C@H](CCCNC(=N)N)NC(=O)[C@H](CCSC)NC(=O)[C@H](CC(=O)O)NC(=O)[C@H](CCSC)NC(=O)[C@@H](N)CC(N)=O)CSSC[C@H](NC(=O)[C@H](CCCCN)NC(=O)CNC(=O)[C@H](Cc4ccccc4)NC(=O)[C@H]([C@@H](C)CC)NC(=O)[C@H](CO)NC(=O)CNC1=O)C(=O)N[C@@H](CCSC)C(=O)N[C@@H](CC(N)=O)C(=O)N[C@@H](CCCCN)C(=O)N[C@@H](CCCCN)C(=O)N3)C(=O)N[C@@H](CCCCN)C(=O)N[C@@H](CCC(N)=O)C(=O)N[C@@H](CCCCN)C(=O)N2 [Compound 50] (H-NMDMRCSASVECKQKCYKAIGSIFGKCMNKKCKCYPR-NH2; disulfide 6-27, 12-32, 16-34)
IC50 [1]: 0.16 nM | IC50 (Kv1.3): 0.27 nM

CCCC[C@@H]1NC(=O)[C@@H]2CSSC[C@H](NC(=O)[C@H](CCCNC(=N)N)NC(=O)[C@H](CCCC)NC(=O)[C@H](CC(=O)O)NC(=O)[C@H](CCCC)NC(=O)[C@@H](N)Cc3ccc(O)cc3)C(=O)N[C@@H](CO)C(=O)N[C@@H](C)C(=O)N[C@@H](CO)C(=O)N[C@@H](C(C)C)C(=O)N[C@@H](CCC(=O)O)C(=O)N[C@H]3CSSC[C@H](NC(=O)[C@H](CCCCN)NC(=O)[C@H](CCCCN)NC(=O)[C@H](CC(N)=O)NC1=O)C(=O)N[C@@H](CCCCN)C(=O)N[C@H](C(=O)N[C@@H](Cc1ccc(O)cc1)C(=O)N1CCC[C@H]1C(=O)N[C@@H](CCCNC(=N)N)C(N)=O)CSSC[C@H](NC(=O)[C@H](CCCCN)NC(=O)[C@H](CCC(N)=O)NC(=O)[C@H](CCCCN)NC3=O)C(=O)N[C@@H](CC(C)C)C(=O)N[C@@H](CCCCN)C(=O)N[C@@H](C)C(=O)N[C@@H]([C@@H](C)CC)C(=O)NCC(=O)N[C@@H](CO)C(=O)N[C@@H]([C@@H](C)CC)C(=O)N[C@@H](Cc1ccccc1)C(=O)NCC(=O)N[C@@H](CCCCN)C(=O)N2 [Compound 65] (H-Y[Nle]D[Nle]RCSASVECKQKCLKAIGSIFGKC[Nle]NKKCKCYPR-NH2; disulfide 6-27, 12-32, 16-34)
IC50 [1]: 0.12 nM | IC50 (Kv1.3): 0.14 nM

CC[C@H](C)[C@@H]1NC(=O)[C@H](C)NC(=O)[C@H](CCCCN)NC(=O)[C@H](CCCNC(=N)N)NC(=O)[C@@H]2CSSC[C@@H](C(=O)N[C@@H](Cc3ccc(O)cc3)C(=O)N3CCC[C@H]3C(=O)N[C@@H](CCCNC(=N)N)C(N)=O)NC(=O)[C@H](CCCCN)NC(=O)[C@@H]3CSSC[C@H](NC(=O)[C@H](CCC(=O)O)NC(=O)[C@H](C(C)C)NC(=O)[C@H](CO)NC(=O)[C@H](C)NC(=O)[C@H](CO)NC(=O)[C@@H](NC(=O)[C@H](CCCNC(=N)N)NC(=O)[C@H](CCSC)NC(=O)[C@H](CC(=O)O)NC(=O)[C@H](CCSC)NC(=O)[C@@H](N)CC(N)=O)CSSC[C@H](NC(=O)[C@H](CCCCN)NC(=O)CNC(=O)[C@H](Cc4ccccc4)NC(=O)[C@H]([C@@H](C)CC)NC(=O)[C@H](CO)NC(=O)CNC1=O)C(=O)N[C@@H](CCSC)C(=O)N[C@@H](CC(N)=O)C(=O)N[C@@H](CCCCN)C(=O)N[C@@H](CCCCN)C(=O)N3)C(=O)N[C@@H](CCCCN)C(=O)N[C@@H](CCC(N)=O)C(=O)N[C@@H](CCCCN)C(=O)N2 [Compound 51] (H-NMDMRCSASVECKQKCRKAIGSIFGKCMNKKCKCYPR-NH2; disulfide 6-27, 12-32, 16-34)
IC50 [1]: 0.11 nM | IC50 (Kv1.3): 0.25 nM

CCCC[C@H](NC(=O)[C@H](CC(=O)O)NC(=O)[C@H](CCCC)NC(=O)[C@@H](N)CC(N)=O)C(=O)N[C@@H](CCCNC(=N)N)C(=O)N[C@H]1CSSC[C@@H]2NC(=O)[C@H](CCCCN)NC(=O)CNC(=O)[C@H](Cc3ccccc3)NC(=O)[C@H]([C@@H](C)CC)NC(=O)[C@H](CO)NC(=O)CNC(=O)[C@H]([C@@H](C)CC)NC(=O)[C@H](C)NC(=O)[C@H](CCCCN)NC(=O)[C@H](CC(C)C)NC(=O)[C@@H]3CSSC[C@@H](C(=O)N[C@@H](Cc4ccc(O)cc4)C(=O)N4CCC[C@H]4C(=O)N[C@@H](CCCNC(=N)N)C(N)=O)NC(=O)[C@H](CCCCN)NC(=O)[C@H](CSSC[C@H](NC(=O)[C@H](CCC(=O)O)NC(=O)[C@H](C(C)C)NC(=O)[C@H](CO)NC(=O)[C@H](C)NC(=O)[C@H](CO)NC1=O)C(=O)N[C@@H](CCCCN)C(=O)N[C@@H](CCC(N)=O)C(=O)N[C@@H](CCCCN)C(=O)N3)NC(=O)[C@H](CCCCN)NC(=O)[C@H](CCCCN)NC(=O)[C@H](CC(N)=O)NC(=O)[C@H](CCSC)NC2=O [Compound 39] (H-N[Nle]D[Nle]RCSASVECKQKCLKAIGSIFGKCMNKKCKCYPR-NH2; disulfide 6-27, 12-32, 16-34)
IC50 [1]: 0.11 nM | IC50 (Kv1.3): 0.15 nM

CCCC[C@@H]1NC(=O)[C@@H]2CSSC[C@H](NC(=O)[C@H](CCCNC(=N)N)NC(=O)[C@H](CCC(=O)O)NC(=O)[C@H](CC(=O)O)NC(=O)[C@@H](NC(=O)[C@@H]3CCCN3)[C@@H](C)CC)C(=O)N[C@@H](CO)C(=O)N[C@@H](C)C(=O)N[C@@H](CO)C(=O)N[C@@H](C(C)C)C(=O)N[C@@H](CCC(=O)O)C(=O)N[C@H]3CSSC[C@H](NC(=O)[C@H](CCCCN)NC(=O)[C@H](CCCCN)NC(=O)[C@H](CC(N)=O)NC1=O)C(=O)N[C@@H](CCCCN)C(=O)N[C@H](C(=O)N[C@@H](Cc1ccc(O)cc1)C(=O)N1CCC[C@H]1C(=O)N[C@@H](CCCNC(=N)N)C(=O)O)CSSC[C@H](NC(=O)[C@H](CCCCN)NC(=O)[C@H](CCC(N)=O)NC(=O)[C@H](CCCCN)NC3=O)C(=O)N[C@@H](CC(C)C)C(=O)N[C@@H](C)C(=O)N[C@@H](C)C(=O)N[C@@H]([C@@H](C)CC)C(=O)NCC(=O)N[C@@H](CO)C(=O)N[C@@H]([C@@H](C)CC)C(=O)N[C@@H](Cc1ccccc1)C(=O)NCC(=O)N[C@@H](CCCCN)C(=O)N2 [Compound 100] (H-PIDERCSASVECKQKCLAAIGSIFGKC[Nle]NKKCKCYPR-OH; disulfide 6-27, 12-32, 16-34)
IC50 [1]: 0.85 nM | IC50 (Rat whole blood): ≤ 1 nM | IC50 (Rat whole blood; [2]): 0.87 nM

CCCC[C@H](NC(=O)[C@H](CC(=O)O)NC(=O)[C@H](CCCC)NC(=O)[C@@H](N)CO)C(=O)N[C@@H](CCCNC(=N)N)C(=O)N[C@H]1CSSC[C@@H]2NC(=O)[C@H](CCCCN)NC(=O)CNC(=O)[C@H](Cc3ccccc3)NC(=O)[C@H]([C@@H](C)CC)NC(=O)[C@H](CO)NC(=O)CNC(=O)[C@H]([C@@H](C)CC)NC(=O)[C@H](C)NC(=O)[C@H](CCCCN)NC(=O)[C@H](CC(C)C)NC(=O)[C@@H]3CSSC[C@@H](C(=O)N[C@@H](Cc4ccc(O)cc4)C(=O)N[C@@H](CCC(N)=O)C(N)=O)NC(=O)[C@H](CCCCN)NC(=O)[C@H](CSSC[C@H](NC(=O)[C@H](CCC(=O)O)NC(=O)[C@H](C(C)C)NC(=O)[C@H](CO)NC(=O)[C@H](C)NC(=O)[C@H](CO)NC1=O)C(=O)N[C@@H](CCCCN)C(=O)N[C@@H](CCC(N)=O)C(=O)N[C@@H](CCCCN)C(=O)N3)NC(=O)[C@H](CCCCN)NC(=O)[C@H](CCCCN)NC(=O)[C@H](CC(N)=O)NC(=O)[C@H](CCSC)NC2=O [Compound 74] (H-S[Nle]D[Nle]RCSASVECKQKCLKAIGSIFGKCMNKKCKCYQ-NH2; disulfide 6-27, 12-32, 16-34)
IC50 [1]: 0.36 nM | IC50 (Rat whole blood; [2]): 1.6 nM

CCCC[C@H](NC(=O)[C@H](CC(=O)O)NC(=O)[C@H](CCCC)NC(=O)[C@@H](N)CO)C(=O)N[C@@H](CCCNC(=N)N)C(=O)N[C@H]1CSSC[C@@H]2NC(=O)[C@H](CCCCN)NC(=O)CNC(=O)[C@H](Cc3ccccc3)NC(=O)[C@H]([C@@H](C)CC)NC(=O)[C@H](CO)NC(=O)CNC(=O)[C@H]([C@@H](C)CC)NC(=O)[C@H](C)NC(=O)[C@H](CCCCN)NC(=O)[C@H](CC(C)C)NC(=O)[C@@H]3CSSC[C@@H](C(=O)N[C@@H](Cc4ccc(O)cc4)C(=O)N4CCC[C@H]4C(=O)N[C@@H](CCCNC(=N)N)C(N)=O)NC(=O)[C@H](CCCCN)NC(=O)[C@H](CSSC[C@H](NC(=O)[C@H](CCC(=O)O)NC(=O)[C@H](C(C)C)NC(=O)[C@H](CO)NC(=O)[C@H](C)NC(=O)[C@H](CO)NC1=O)C(=O)N[C@@H](C(C)C)C(=O)N[C@@H](CCC(N)=O)C(=O)N[C@@H](CCCCN)C(=O)N3)NC(=O)[C@H](CCCCN)NC(=O)[C@H](CCCCN)NC(=O)[C@H](CC(N)=O)NC(=O)[C@H](CCSC)NC2=O [Compound 72] (H-S[Nle]D[Nle]RCSASVECVQKCLKAIGSIFGKCMNKKCKCYPR-NH2; disulfide 6-27, 12-32, 16-34)
IC50 [1]: 0.19 nM | IC50 (Rat whole blood): ≤ 1 nM | IC50 (Rat whole blood; [2]): 0.47 nM

CCCC[C@H](NC(=O)[C@@H]1CCCN1)C(=O)N[C@@H](CC(=O)O)C(=O)N[C@@H](CCCC)C(=O)N[C@@H](CCCNC(=N)N)C(=O)N[C@H]1CSSC[C@@H]2NC(=O)[C@H](CCCCN)NC(=O)CNC(=O)[C@H](Cc3ccccc3)NC(=O)[C@H]([C@@H](C)CC)NC(=O)[C@H](CO)NC(=O)CNC(=O)[C@H]([C@@H](C)CC)NC(=O)[C@H](C)NC(=O)[C@H](CCCC(N)=O)NC(=O)[C@H](CC(C)C)NC(=O)[C@@H]3CSSC[C@@H](C(=O)N[C@@H](Cc4ccc(O)cc4)C(=O)N4CCC[C@H]4C(=O)N[C@@H](CCCNC(=N)N)C(N)=O)NC(=O)[C@H](CCCCN)NC(=O)[C@H](CSSC[C@H](NC(=O)[C@H](CCC(=O)O)NC(=O)[C@H](C(C)C)NC(=O)[C@H](CO)NC(=O)[C@H](C)NC(=O)[C@H](CO)NC1=O)C(=O)N[C@@H](CCCCN)C(=O)N[C@@H](CCC(=O)O)C(=O)N[C@@H](CCCCN)C(=O)N3)NC(=O)[C@H](CCCCN)NC(=O)[C@H](CCCCN)NC(=O)[C@H](CC(N)=O)NC(=O)[C@H](CCCC)NC2=O [Compound 85] (H-P[Nle]D[Nle]RCSASVECKEKCL[Aad](NH2)AIGSIFGKC[Nle]NKKCKCYPR-NH2; disulfide 6-27, 12-32, 16-34)
IC50 [1]: 0.15 nM | IC50 (Rat whole blood; [2]): 1.4 nM
